Earlier results on five compounds are cited in patent US20190026423A1, “Cycle Closure Estimation of Relative Binding Affinities and Errors” (Schrödinger, LLC, priority 2013, published 2019).

Read-outs that look alike come from different tables or passages of the source.

For the data set, the target named is CDK2-cyclin A receptor (Homo sapiens, UniProt P24941). The following applies: experimental binding free energy.
The mark [1] stands for this setting: 6 ligands with crystal structures.
The mark [2] stands for this setting: ligands without crystal structures.

With `Cc1cccc(Nc2nc(OCC3CCCCC3)c3nc[nH]c3n2)c1` [Compound 1h1r], under setting [1], the “ΔG(EXP)” value was -7.67 kcal/mol.

In the case of `CS(=O)(=O)c1cccc(Nc2nc(OCC3CCCCC3)c3nc[nH]c3n2)c1` [Compound 1oiu], the “ΔG(EXP)” value under setting [1] was -9.08 kcal/mol.

`CC(=O)c1ccc(Nc2nc(OCC3CCCCC3)c3nc[nH]c3n2)cc1` [Compound 1oiy]: the “ΔG(EXP)” value under setting [1] was -9.79 kcal/mol.

Consider `Cc1cccc(Nc2nc(OCC3CCCCC3)c3nc[nH]c3n2)c1` [Compound 17], for which the “ΔG(EXP)” value under setting [2] is -7.04 kcal/mol.

Turning to `CCc1cccc(Nc2nc(OCC3CCCCC3)c3nc[nH]c3n2)c1` [Compound 20], the “ΔG(EXP)” value under setting [2] is -8.72 kcal/mol.
